Assay results as given in PubChem BioAssay (NCI).
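Each compound was tested at five concentrations against cells in 96-well plates for 48 hours. Abbreviation: GI50, concentration required for 50% inhibition of growth. Definition used: TGI = concentration required for complete inhibition of growth.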

Columns and labels:
Experiment in all cases: growth of human tumour cells (NCI), 48 h
HCC-2998 colon = test system: HCC-2998 colon
HCT-116 colon = test system: HCT-116 colon
HS 578T breast = test system: HS 578T breast
M14 melanoma = test system: M14 melanoma
MALME-3M melanoma = test system: MALME-3M melanoma
SK-MEL-5 melanoma = test system: SK-MEL-5 melanoma
SK-OV-3 ovarian = test system: SK-OV-3 ovarian
SNB-19 CNS = test system: SNB-19 CNS
SNB-75 CNS = test system: SNB-75 CNS
UO-31 renal = test system: UO-31 renal

| Structure (SMILES) | GI50 (HCC-2998 colon) | TGI (HCC-2998 colon) | GI50 (HCT-116 colon) | TGI (HCT-116 colon) | GI50 (HS 578T breast) | TGI (HS 578T breast) | GI50 (M14 melanoma) | TGI (M14 melanoma) | GI50 (MALME-3M melanoma) | TGI (MALME-3M melanoma) | GI50 (SK-MEL-5 melanoma) | TGI (SK-MEL-5 melanoma) | GI50 (SK-OV-3 ovarian) | TGI (SK-OV-3 ovarian) | GI50 (SNB-19 CNS) | TGI (SNB-19 CNS) | GI50 (SNB-75 CNS) | TGI (SNB-75 CNS) | GI50 (UO-31 renal) | TGI (UO-31 renal) |
| --- | --- | --- | --- | --- | --- | --- | --- | --- | --- | --- | --- | --- | --- | --- | --- | --- | --- | --- | --- | --- |
| O=C(O)CSc1cc(NS(=O)(=O)c2ccc(Br)cc2)c2ccccc2c1O | 18.4 µM | 33.9 µM | 5.65 µM | 16.2 µM | 7650 nM | 80.1 µM | 15.1 µM | 29.5 µM | 8.02 µM | 21.1 µM | 14.7 µM | 27.9 µM | 18.7 µM | 33.2 µM | 17.1 µM | 34.2 µM | 24000 nM | 42.4 µM | 12000 nM | 25.2 µM |
| Cc1ccc(-c2nc([P+](c3ccccc3)(c3ccccc3)c3ccccc3)c(N3CCOCC3)o2)cc1 | 0.517 µM | 6.87 µM | 0.356 µM | 10.8 µM | 578 nM | 9.64 µM | 0.543 µM | 10.4 µM | 0.378 µM | 3.11 µM | 0.314 µM | 1.03 µM | 0.381 µM | 4.32 µM | 0.333 µM | 4.91 µM | 194 nM | 1.11 µM | 2230 nM | 7.3 µM |
| Cn1cc(-c2ccc3c(c2)ncn3-c2cc(NS(=O)(=O)C3CC3)cc(-c3ccc(F)cc3F)c2)cn1 | 22.7 µM | 80.1 µM | 5.39 µM | 55.8 µM | 1680 nM | 12.6 µM | 14.9 µM | > 100 µM | 22.7 µM | 63.8 µM | 13.1 µM | 32 µM | 10.2 µM | > 100 µM | 9.46 µM | > 100 µM | 590 nM | 8.28 µM | 635 nM | 36.7 µM |
| O=c1c(Oc2ccc(F)cc2F)cc2cnc(NC3CCOCC3)nc2n1C1CC1 | > 25 µM | > 25 µM | > 25 µM | > 25 µM | > 16900 nM | > 25 µM | > 25 µM | > 25 µM | > 25 µM | > 25 µM | > 25 µM | > 25 µM | > 25 µM | > 25 µM | > 25 µM | > 25 µM | > 25000 nM | > 25 µM | 2210 nM | 10.2 µM |
| O=C1C[C@@H]2OCC=C3C[N+]4([O-])CC[C@]56c7ccccc7N1[C@H]5[C@H]2[C@H]3C[C@@H]64 (stereo not given in full) | > 100 µM | > 100 µM | > 100 µM | > 100 µM | > 100000 nM | > 100 µM | > 100 µM | > 100 µM | > 100 µM | > 100 µM | > 100 µM | > 100 µM | > 100 µM | > 100 µM | > 100 µM | > 100 µM | > 100000 nM | > 100 µM | > 100000 nM | > 100 µM |
| CC(=O)O[C@H]1C[C@@H]2[C@@]3(C)CC[C@H]4C[C@@]4(C)[C@@H]3CC[C@@]2(C)C2=CCC3=C(COC3=O)[C@]21C | 23.7 µM | 51.4 µM | 19.5 µM | 43.7 µM | 10200 nM | 27.3 µM | 22.6 µM | 47.3 µM | 11 µM | 26.4 µM | 17.7 µM | 34.5 µM | 32.6 µM | > 100 µM | 24.3 µM | 69.7 µM | 23100 nM | 51.2 µM | 32100 nM | > 100 µM |
| Oc1c(Br)cc(Cl)cc1C(c1cc(Cl)cc(Br)c1O)C(Cl)(Cl)Cl | 2.63 µM | 8.48 µM | 2.12 µM | 7.91 µM | 2460 nM | > 21.9 µM | 3.74 µM | 12.8 µM | 2.73 µM | 7.78 µM | 1.64 µM | 3.83 µM | 2.94 µM | 8.93 µM | 3.13 µM | 15.9 µM | 2640 nM | 12.3 µM | 2810 nM | 9.61 µM |
| O=C1[C@H](Cc2ccc(O)cc2)N2C(=O)CCN(C(=O)NCc3ccccc3)[C@H]2CN1Cc1cccc2ccccc12 | 3.51 µM | 23.2 µM | 0.916 µM | 12.7 µM | 851 nM | 7.24 µM | 3.61 µM | 20.1 µM | 1.9 µM | 9.46 µM | 2.28 µM | 11.4 µM | 2.74 µM | 8.14 µM | 0.868 µM | > 100 µM | 399 nM | 25.3 µM | 11300 nM | 77.9 µM |
